{"source": "patent US20220008447A1", "about": "“Rosacea Treatment Method” (priority 2019, published 2022)", "key": {"rosacea": {"test_system": "rosacea", "conditions": "cited from earlier work"}, "patient with rosacea": {"test_system": "patient with rosacea", "assay": "Application b.i.d. of other Delphinidin topical formulations to the face of a rosacea patient (Examples 11-13, present tense)", "assay_type": "in vivo, human", "text": "A topical gel is made with delphinidin 3,5-O-diglucoside 7% (w/w) in a standard cosmetic disappearing gel base. Application b.i.d. to the face of a patient with lupus-related rosacea, for at least about one month alleviates lupus-related skin inflammation and the patient maintains normal, healthy skin. A topical cream is made with delphinidin 6% (w/w) in a standard cosmetic lipophilic cream base. […] A topical cream is made with delphinidin 3-O-sambubioside 5-O-glucoside 3% (w/w) in a standard cosmetic disappearing cream base. Application b.i.d. to the face of a patient with papulopustular rosacea with transient, central face pustules for two months reduces central facial erythema and eliminates transient central face pustules."}, "[1]": {"conditions": "Example 13, 3% (w/w) disappearing cream, papulopustular rosacea, two months"}}, "data": [{"compound": "Cc1ncc([N+](=O)[O-])n1CCO", "note": "[metronidazole]", "values": [{"measurement": "reducing rosacea symptoms", "setting": "rosacea; prior-art treatment", "result": "effective and safe"}, {"measurement": "side effects", "setting": "rosacea; prior-art treatment", "result": "very few people experienced mild itching, skin irritation and dry skin"}, {"measurement": "time until improvements appear", "setting": "rosacea; prior-art treatment", "result": "three to six"}]}, {"compound": "C[C@H]1c2cccc(O)c2C(=O)C2=C(O)[C@]3(O)C(=O)C(C(N)=O)=C(O)[C@@H](N(C)C)[C@@H]3[C@@H](O)[C@@H]21", "note": "[doxycycline]", "values": [{"measurement": "side effects of low dose compared with 100 mg", "setting": "rosacea; low dose, 40 mg", "result": "much fewer side effects of diarrhea and nausea"}]}, {"compound": "CC[C@H]1OC(=O)[C@H](C)[C@@H](O[C@H]2C[C@@](C)(OC)[C@@H](O)[C@H](C)O2)[C@H](C)[C@@H](O[C@@H]2O[C@H](C)C[C@H](N(C)C)[C@H]2O)[C@](C)(O)C[C@@H](C)CN(C)[C@H](C)[C@@H](O)[C@]1(C)O", "note": "[Azithromycin]", "values": [{"measurement": "efficacy compared with 100 mg doxycycline", "setting": "rosacea; only one study", "result": "may be as effective as 100 mg doxycycline"}]}, {"compound": "CC1=C(/C=C/C(C)=C/C=C/C(C)=C\\C(=O)O)C(C)(C)CCC1", "note": "[isotretinoin]", "values": [{"measurement": "efficacy compared with doxycycline, pimples and pustules", "setting": "rosacea; low dose, 0.3 mg/kg", "result": "slightly more effective than 50-100 mg doxycycline"}]}, {"compound": "Ivermectin", "values": [{"measurement": "efficacy compared with placebo and metronidazole", "setting": "rosacea; prior-art treatment", "result": "more effective than placebo and slightly more effective than metronidazole"}]}, {"compound": "OC[C@H]1O[C@@H](Oc2cc3c(O[C@@H]4O[C@H](CO)[C@@H](O)[C@H](O)[C@H]4O)cc(O)cc3[o+]c2-c2cc(O)c(O)c(O)c2)[C@H](O)[C@@H](O)[C@@H]1O", "note": "[delphinidin 3,5-O-diglucoside]", "values": [{"measurement": "lupus-related skin inflammation", "setting": "patient with rosacea; Example 11, 7% (w/w) topical gel, lupus-related rosacea, at least about one month", "result": "alleviates"}]}, {"compound": "O=C(O)CCCCCCCC(=O)O", "note": "[azelaic acid]", "values": [{"measurement": "reducing rosacea symptoms", "setting": "rosacea; prior-art treatment", "result": "effective and safe"}, {"measurement": "side effects", "setting": "rosacea; prior-art treatment", "result": "caused mild burning, stinging or irritation"}, {"measurement": "time until improvements appear", "setting": "rosacea; prior-art treatment", "result": "three to six"}]}, {"compound": "Oc1cc(O)c2cc(O)c(-c3cc(O)c(O)c(O)c3)[o+]c2c1", "note": "[delphinidin, 2-(3,4,5-trihydroxyphenyl) chromenylium-3,5,7-triol]", "values": [{"measurement": "flushing, persistent central facial erythema and telangiectasia", "setting": "patient with rosacea; Example 12, 6% (w/w) lipophilic cream, erythematotelangiectatic rosacea, two weeks", "result": "measurably reduces"}]}, {"compound": "Brc1c(NC2=NCCN2)ccc2nccnc12", "note": "[brimonidine]", "values": [{"measurement": "duration of effect on redness after being applied", "setting": "rosacea; prior-art treatment", "result": "up to 12 hours"}]}, {"compound": "OC[C@H]1O[C@@H](Oc2cc(O)cc3[o+]c(-c4cc(O)c(O)c(O)c4)c(O[C@@H]4O[C@H](CO)[C@@H](O)[C@H](O)[C@H]4O[C@@H]4OC[C@@H](O)[C@H](O)[C@H]4O)cc23)[C@H](O)[C@@H](O)[C@@H]1O", "note": "[delphinidin 3-O-sambubioside 5-O-glucoside]", "values": [{"measurement": "central facial erythema", "setting": "patient with rosacea; [1]", "result": "reduces"}, {"measurement": "transient central face pustules", "setting": "patient with rosacea; [1]", "result": "eliminates"}]}]}
